Reference: ChEMBL document CHEMBL1145488, “Transient loss of high-level mupirocin resistance in Staphylococcus aureus due to MupA polymorphism” (2007)
Converted amounts (≈) assume the structure as drawn.

Experiments:
Assay type in all cases: functional
Staphylococcus aureus [1] = test: Antibacterial activity against Staphylococcus aureus MB1348 with mupA gene mutation by Etest
Staphylococcus aureus [2] = test: Antibacterial activity against Staphylococcus aureus MB1348 with mupA gene mutation by broth microdilution
Staphylococcus aureus [3] = test: Antibacterial activity against Staphylococcus aureus with ileS gene mutation
Staphylococcus aureus [4] = test: Antibacterial activity against Staphylococcus aureus J2870 with mupA gene mutation

For `C/C(=C\C(=O)OCCCCCCCCC(=O)O)C[C@@H]1OC[C@H](C[C@@H]2O[C@H]2[C@@H](C)[C@H](C)O)[C@@H](O)[C@H]1O` [MUPIROCIN], the MIC (Staphylococcus aureus [1]) was > 256 µg/mL, the MIC (Staphylococcus aureus [2]) was 0.25 µg/mL (≈ 0.499 µM) and the MIC (Staphylococcus aureus [3]) was 8 µg/mL (≈ 16 µM). The MIC (Staphylococcus aureus [4]) was ≥ 512 µg/mL.
